Biological target: T1, Glucocorticoid receptor (Rattus norvegicus) (UniProt P06536)
T1 sequence (whole entry): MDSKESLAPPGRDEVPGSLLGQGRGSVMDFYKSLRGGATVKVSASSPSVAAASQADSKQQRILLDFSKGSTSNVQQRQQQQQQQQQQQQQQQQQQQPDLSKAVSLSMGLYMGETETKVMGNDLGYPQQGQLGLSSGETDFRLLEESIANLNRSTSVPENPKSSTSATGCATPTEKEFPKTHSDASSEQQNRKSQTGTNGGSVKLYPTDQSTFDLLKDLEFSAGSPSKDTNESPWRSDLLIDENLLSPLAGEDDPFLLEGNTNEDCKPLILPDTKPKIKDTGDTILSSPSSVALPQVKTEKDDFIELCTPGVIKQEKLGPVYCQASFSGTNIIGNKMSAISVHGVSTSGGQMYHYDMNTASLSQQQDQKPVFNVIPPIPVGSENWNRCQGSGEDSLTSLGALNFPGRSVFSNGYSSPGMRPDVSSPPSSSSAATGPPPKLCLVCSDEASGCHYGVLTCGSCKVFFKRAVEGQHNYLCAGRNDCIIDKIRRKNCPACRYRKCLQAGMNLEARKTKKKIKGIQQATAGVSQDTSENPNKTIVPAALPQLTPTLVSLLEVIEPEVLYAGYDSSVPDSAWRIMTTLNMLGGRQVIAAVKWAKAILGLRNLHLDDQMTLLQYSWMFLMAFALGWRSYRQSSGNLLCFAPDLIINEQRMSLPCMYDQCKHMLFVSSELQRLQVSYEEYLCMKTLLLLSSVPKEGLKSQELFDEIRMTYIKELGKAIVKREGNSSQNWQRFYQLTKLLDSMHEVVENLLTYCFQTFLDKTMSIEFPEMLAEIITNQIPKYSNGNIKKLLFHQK
Assay: Relative binding affinity to glucocorticoid receptor on cytosol fromt hymus at 4 hr

- RBA: 270
Compound: CC#C[C@]1(O)CCC2C3CCC4=CC(=O)CCC4=C3C(c3cccs3)CC21C (stereo partly specified)
